Columns and labels:
bacteria = details: described in the literature; cited from earlier work
[1] = tested on: Haemophilus influenzae Spain 7; test: Determination of the minimum inhibitory concentration (MIC), liquid dilution test; assay type: cell-based; details: BHI broth plus 20% bovine serum, 10 μg/ml hemin and 1% Isovitale, 37° C., 18-24 hours, 8-10% CO2
Description: (§1) Determination of the Minimum Inhibitory Concentration (MIC):
(§2) The MIC is determined in a liquid dilution test. Overnight cultures of the test organisms are diluted to a cell count of 10^5 organisms per ml in Isosensitest medium (Difco, Irvine, USA) and are incubated with dilutions of the test substances (1:2 dilution stages). Exceptions are the tests with S. pneumoniae G9A, which are conducted in BHI broth (Difco) plus 20% bovine serum, and with H. influenzae, which are conducted in BHI broth (Difco) plus 20% bovine serum, 10 μg/ml hemin and 1% Isovitale (Becton Dickinson, N.J., USA).
(§3) The cultures are incubated at 37° C. for 18-24 hours; S. pneumoniae and H. influenzae in the presence of 8-10% CO2.
(§4) The lowest concentration of each substance at which there is no longer any visible bacterial growth is defined as the MIC. The MICs in μmol/1 of some compounds of the invention against a series of test organisms are listed by way of example in the table below.

[2] = tested on: Staphylococcus aureus 133; test: as above; assay type: cell-based; details: Isosensitest medium, 10^5 organisms per ml, 37° C., 18-24 hours; lowest concentration with no visible bacterial growth
Description: as §1, §2, §3, §4

Row | SMILES | antibacterial activity (bacteria) | MIC Haemophilus influenzae Spain 7 [1] [μmol/1] | MIC Staphylococcus aureus 133 [2] [μmol/1]
1 | C/C=C/C=C/C=C/C(=O)N[C@@H](CC(=O)N[C@H](C(=O)[C@@]1(O)C(=O)NC(=O)[C@H]1C)C(C)C)c1ccccc1 [moiramide C] | inactive |  | 
2 | CC(C)[C@H](NC(=O)C[C@H](NC(=O)/C=C/c1ccc2c(c1)OCO2)c1ccccc1)C(=O)[C@@H]1C(=O)NC(=O)[C@H]1C [Example 1, (2E)-3-(1,3-Benzodioxol-5-yl)-N-{(1S)-3-[((1S)-2-methyl-1-{[(3R,4S)-4-methyl-2,5-dioxo-3-pyrrolidinyl]carbonyl}propyl)amino]-3-oxo-1-phenylpropyl}-2-propenamide] |  | 31.3 | 3.9
3 | C[C@@H]1C(=O)NC(=O)[C@H]1C(=O)[C@@H](NC(=O)C[C@H](NC(=O)/C=C/c1ccc2c(c1)OCO2)c1ccccc1)C1CCCC1 [Example 31, (2E)-3-(2H-Benzo[d]1,3-dioxolan-5-yl)-N-((1S)-2-{N-[(1S)-2-((4S,3R)-4-methyl-2,5-dioxoazolin-3-yl)-1-cyclopentyl-2-oxoethyl]carbamoyl}-1-phenylethyl)prop-2-enamide] |  | 31.3 | <1
4 | C[C@@H]1C(=O)NC(=O)[C@H]1C(=O)[C@@H](NC(=O)C[C@H](NC(=O)/C=C/c1ccc2c(c1)OCO2)c1ccccc1)C(C)(C)C [Example 2, (2E)-3-(1,3-Benzodioxol-5-yl)-N-{(1S)-3-[((1S)-2,2-dimethyl-1-{[(3R,4S)-4-methyl-2,5-dioxo-3-pyrrolidinyl]carbonyl}propyl)amino]-3-oxo-1-phenylpropyl}-2-propenamide] |  | 31.3 | 7.8
5 | CC(C)[C@H](NC(=O)CC(NC(=O)/C=C/c1ccc2c(c1)OCO2)c1ccc2ccccc2c1)C(=O)[C@@H]1C(=O)NC(=O)[C@H]1C (some centres unmarked) [Example 92] |  | 15.6 | <1
6 | C/C=C/C=C/C=C/C(=O)N[C@@H](CC(=O)N[C@H](C(=O)[C@@H]1C(=O)NC(=O)[C@H]1C)C(C)C)c1ccccc1 [andrimid] | having antibacterial activity |  | 
7 | CC(C)[C@H](NC(=O)C[C@H](NC(=O)/C=C/c1ccsc1)c1ccccc1)C(=O)[C@@H]1C(=O)NC(=O)[C@H]1C [Example 11] |  | 62.5 | 7.8
8 | C[C@@H]1C(=O)N(N)C(=O)[C@H]1C(=O)[C@@H](NC(=O)C[C@H](NC(=O)/C=C/c1ccc(C#N)cc1)c1ccccc1)C1CCCC1 [Example 34, (2E)-N-((1S)-2-{N-[(1S)-2-((4S,3R)-1-amino-4-methyl-2,5-dioxoazolidin-3-yl)-1-cyclopentyl-2-oxoethyl]carbamoyl}-1-phenylethyl)-3-(4-cyanophenyl)prop-2-enamide] |  | 7.8 | <1
9 | C/C=C/C=C/C(=O)N[C@@H](CC(=O)N[C@H](C(=O)[C@@H]1C(=O)NC(=O)[C@H]1C)C(C)C)c1ccccc1 [moiramide B] | having antibacterial activity |  | 
10 | CC(C)[C@H](NC(=O)CC(NC(=O)/C=C/c1ccc2c(c1)OCO2)c1ccc2c(c1)OCCO2)C(=O)[C@@H]1C(=O)NC(=O)[C@H]1C (stereo partly drawn) [Example 5, (2E)-3-(1,3-Benzodioxol-5-yl)-N-{1-(2,3-dihydro-1,4-benzodioxin-6-yl)-3-[((1S)-2-methyl-1-{[(3R,4S)-4-methyl-2,5-dioxo-3-pyrrolidinyl]carbonyl}propyl)amino]-3-oxopropyl}-2-propenamide] |  | 3.9 | 7.8

— patent publication US7402683B2, “Cinnamic acid amides” (Bayer HealthCare AG, priority 2002, dated 2008)
